Tests used:
[1] = biological target: T1, αllbβ3 integrin (Homo sapiens, UniProt P05106+P08514); assay: ELISA: inhibition of binding of αllbβ3 integrin membrane preparation to coated extracellular matrix protein; details: human platelet membrane preparation
T1 construct: Human platelet membrane preparations were used as a source of αllbβ3 integrin; from tissue; host or cells: human platelets (membrane preparation)
Method: (§1) An ELISA assay based on the published method of Bethert et al., 2000, J Biol Chem 275, 33308-23, was employed.
(§2) Briefly, appropriate microtitre plates were coated with either Fibrinogen or Vitronectin (10 μg/well). These extracellular matrix proteins contain the RGD amino acid sequence that is recognized by αllbβ3 integrin. Human platelet membrane preparations were used as a source of αllbβ3 integrin and the cell line WM-115 was used as a source of αVβ3 integrin. Inhibition of the binding of αllbβ3 integrin containing membrane preparations to the extracellular matrix protein was determined by pre-incubating the platelet membrane preparation with test or control compounds. The binding of the αllbβ3 integrin containing membrane was the quantitated by using a rabbit anti-integrinβ3 antibody, a horse radish peroxidase coupled second antibody and a standard colorimetric detection system.

[2] = biological target: T2, αVβ3 integrin (Homo sapiens, UniProt P05106+P06756); assay: ELISA: inhibition of binding of αVβ3 integrin (source WM-115 cell line) to coated extracellular matrix protein; details: WM-115 cell line as integrin source
T2 construct: the cell line WM-115 was used as a source of αVβ3 integrin; endogenous in cells; host or cells: WM-115 cell line
Method: as §1, §2

T2 sequence (P06756 31-889 limits assumed): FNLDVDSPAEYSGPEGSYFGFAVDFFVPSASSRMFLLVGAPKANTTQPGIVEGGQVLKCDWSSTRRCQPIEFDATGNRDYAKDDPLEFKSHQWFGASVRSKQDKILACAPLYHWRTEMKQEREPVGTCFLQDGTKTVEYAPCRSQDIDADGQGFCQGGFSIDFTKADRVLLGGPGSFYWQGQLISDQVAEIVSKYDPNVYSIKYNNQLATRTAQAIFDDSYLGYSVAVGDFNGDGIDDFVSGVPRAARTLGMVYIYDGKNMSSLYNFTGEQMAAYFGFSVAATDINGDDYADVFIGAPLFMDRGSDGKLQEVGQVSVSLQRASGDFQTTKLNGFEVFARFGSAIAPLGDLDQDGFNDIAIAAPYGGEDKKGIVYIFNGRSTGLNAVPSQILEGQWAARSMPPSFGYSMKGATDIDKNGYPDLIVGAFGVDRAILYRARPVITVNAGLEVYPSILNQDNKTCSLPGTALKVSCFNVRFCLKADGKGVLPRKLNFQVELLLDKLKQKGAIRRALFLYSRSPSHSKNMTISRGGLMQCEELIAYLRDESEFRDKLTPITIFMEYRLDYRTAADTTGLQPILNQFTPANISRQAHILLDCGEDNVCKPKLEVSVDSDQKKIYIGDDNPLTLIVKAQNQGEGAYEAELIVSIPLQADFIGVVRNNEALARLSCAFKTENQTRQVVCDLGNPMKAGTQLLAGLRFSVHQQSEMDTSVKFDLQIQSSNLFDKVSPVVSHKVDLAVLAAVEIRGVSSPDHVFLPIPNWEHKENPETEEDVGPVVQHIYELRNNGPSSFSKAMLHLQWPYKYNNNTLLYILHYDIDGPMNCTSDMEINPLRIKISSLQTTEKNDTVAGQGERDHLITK
T2 sequence (P06756 891-1048 partner limits assumed): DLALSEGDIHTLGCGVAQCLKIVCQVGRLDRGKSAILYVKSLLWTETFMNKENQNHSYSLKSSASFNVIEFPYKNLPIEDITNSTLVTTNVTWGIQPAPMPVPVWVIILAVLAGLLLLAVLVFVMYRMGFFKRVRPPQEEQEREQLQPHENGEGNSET
T2 sequence (P05106 27-788): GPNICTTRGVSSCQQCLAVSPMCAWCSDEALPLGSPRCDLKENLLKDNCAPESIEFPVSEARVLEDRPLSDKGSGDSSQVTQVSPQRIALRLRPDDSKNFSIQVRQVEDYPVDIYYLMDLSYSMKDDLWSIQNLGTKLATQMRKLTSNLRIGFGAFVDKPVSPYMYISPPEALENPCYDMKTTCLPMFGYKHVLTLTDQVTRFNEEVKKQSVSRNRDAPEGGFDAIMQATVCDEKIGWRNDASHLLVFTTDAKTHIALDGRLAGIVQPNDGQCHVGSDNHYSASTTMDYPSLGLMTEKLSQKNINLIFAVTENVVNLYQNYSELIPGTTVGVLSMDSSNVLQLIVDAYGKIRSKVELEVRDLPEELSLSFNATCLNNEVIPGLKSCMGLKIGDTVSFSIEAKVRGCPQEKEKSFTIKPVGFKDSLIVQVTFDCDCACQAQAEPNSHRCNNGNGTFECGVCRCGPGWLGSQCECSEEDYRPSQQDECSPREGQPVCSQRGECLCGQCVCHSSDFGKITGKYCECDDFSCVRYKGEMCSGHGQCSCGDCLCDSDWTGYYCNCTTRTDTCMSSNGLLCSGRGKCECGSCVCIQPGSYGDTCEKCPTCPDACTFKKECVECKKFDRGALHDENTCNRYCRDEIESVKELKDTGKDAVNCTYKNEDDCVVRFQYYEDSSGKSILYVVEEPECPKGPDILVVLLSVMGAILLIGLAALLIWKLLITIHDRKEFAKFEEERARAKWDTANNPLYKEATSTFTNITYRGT
T1 sequence (P08514 32-887 limits assumed): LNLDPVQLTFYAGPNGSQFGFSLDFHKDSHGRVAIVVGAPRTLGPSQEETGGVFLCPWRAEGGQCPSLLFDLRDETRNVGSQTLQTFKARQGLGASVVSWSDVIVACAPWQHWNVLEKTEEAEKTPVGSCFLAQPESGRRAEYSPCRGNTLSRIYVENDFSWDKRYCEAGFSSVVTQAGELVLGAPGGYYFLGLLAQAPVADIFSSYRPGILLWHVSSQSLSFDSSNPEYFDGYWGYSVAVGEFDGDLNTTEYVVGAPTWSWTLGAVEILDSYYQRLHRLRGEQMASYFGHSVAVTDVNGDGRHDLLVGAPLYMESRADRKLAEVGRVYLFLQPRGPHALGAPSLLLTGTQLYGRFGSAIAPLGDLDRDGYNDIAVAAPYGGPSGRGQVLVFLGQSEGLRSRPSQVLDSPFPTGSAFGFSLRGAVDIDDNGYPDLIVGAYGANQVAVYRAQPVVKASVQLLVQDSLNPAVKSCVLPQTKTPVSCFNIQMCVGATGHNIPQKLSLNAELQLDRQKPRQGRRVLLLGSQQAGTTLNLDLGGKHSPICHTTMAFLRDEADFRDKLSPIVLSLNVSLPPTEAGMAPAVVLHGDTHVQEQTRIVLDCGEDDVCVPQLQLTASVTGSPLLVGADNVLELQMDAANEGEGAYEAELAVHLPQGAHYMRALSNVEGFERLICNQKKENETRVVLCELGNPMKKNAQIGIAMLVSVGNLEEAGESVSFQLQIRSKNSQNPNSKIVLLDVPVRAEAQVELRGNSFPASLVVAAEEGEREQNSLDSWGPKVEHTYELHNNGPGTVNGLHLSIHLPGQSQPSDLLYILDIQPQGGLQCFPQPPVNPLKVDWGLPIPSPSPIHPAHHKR
T1 sequence (P08514 891-1039 partner limits assumed): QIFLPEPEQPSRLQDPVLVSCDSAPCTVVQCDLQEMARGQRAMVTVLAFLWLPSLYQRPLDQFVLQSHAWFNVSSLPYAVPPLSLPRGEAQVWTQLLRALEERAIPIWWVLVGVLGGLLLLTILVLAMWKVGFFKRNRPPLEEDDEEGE
T1 sequence (P05106 27-788): as the sequence (P05106 27-788) above

Row | SMILES | INHIBITION @ 250 uM RECEPTOR allBb3 SUBSTRATE FIBRINOGEN [1] | INHIBITION 250 uM RECEPTOR allBb3 SUBSTRATE VITRONECTIN [1] | INHIBITION 250 uM RECEPTOR aVb3 SUBSTRATE FIBRINOGEN [2]
1 | Nc1cccc(COC2C(O)C(COCc3ccc(C(=O)O)cc3)OC(O)C2NC(=O)c2ccc(Cl)cc2)c1 (single isomer, unassigned) [Compound 82] | ++ (61% to 80% inhibition at 250 micromolar) | + (36% to 60% inhibition at 250 micromolar) | ++ (61% to 80% inhibition at 250 micromolar)
2 | CCOC1O[C@H](COCc2cccc(N)c2)[C@@H](O)[C@H](OCc2ccc(Br)cc2)[C@H]1NC(=O)CCC(=O)O (single isomer, unassigned) [Compound 44] | ++ (61% to 80% inhibition at 250 micromolar) | − (0% to 35% inhibition at 250 micromolar) | + (36% to 60% inhibition at 250 micromolar)
3 | COCC1OC(OCCNC(=N)N)C(NC(=O)c2ccccc2)C(OCc2ccc(C(=O)O)cc2)C1O (single isomer, unassigned) [Compound 115] | − (0% to 35% inhibition at 250 micromolar) | − (0% to 35% inhibition at 250 micromolar) | − (0% to 35% inhibition at 250 micromolar)
4 | COC(=O)COCC1OC(OC)C(NC(=O)CCCNC(=N)N)C(OCc2ccccc2)C1O (single isomer, unassigned) [Compound 126] | ++ (61% to 80% inhibition at 250 micromolar) | +++ (81% to 100% inhibition at 250 micromolar) | +++ (81% to 100% inhibition at 250 micromolar)
5 | CCOC1OC(COCc2ccccc2)C(O)C(OCc2cccc(N)c2)C1NC(=O)c1ccc(C(=O)O)cc1 (single isomer, unassigned) [Compound 68] | − (0% to 35% inhibition at 250 micromolar) | ++ (61% to 80% inhibition at 250 micromolar) | ++ (61% to 80% inhibition at 250 micromolar)
6 | Nc1cccc(C(=O)NC2C(O)OC(COCC(=O)O)C(O)C2OCc2ccc(Br)cc2)c1 (single isomer, unassigned) [Compound 1] | + (36% to 60% inhibition at 250 micromolar) | + (36% to 60% inhibition at 250 micromolar) | − (0% to 35% inhibition at 250 micromolar)
7 | CCOC1O[C@H](COCc2ccccc2)[C@@H](O)[C@H](OCc2ccc(C(=O)O)cc2)[C@H]1NC(=O)CCNC(=N)N (single isomer, unassigned) [Compound 58] | + (36% to 60% inhibition at 250 micromolar) | +++ (81% to 100% inhibition at 250 micromolar) | +++ (81% to 100% inhibition at 250 micromolar)
8 | CCOC1C(O)C(COCc2ccc(C(=O)O)cc2)OC(OCc2ccccc2)C1NC(=O)CCNC(=N)N (single isomer, unassigned) [Compound 87] | − (0% to 35% inhibition at 250 micromolar) | +++ (81% to 100% inhibition at 250 micromolar) | − (0% to 35% inhibition at 250 micromolar)
9 | Nc1cccc(COC[C@H]2OC(O)[C@H](NC(=O)CCC(=O)O)[C@@H](OCc3ccc(Br)cc3)[C@@H]2O)c1 (single isomer, unassigned) [Compound 47] | + (36% to 60% inhibition at 250 micromolar) | +++ (81% to 100% inhibition at 250 micromolar) | − (0% to 35% inhibition at 250 micromolar)
10 | CCOC1O[C@H](COCC(=O)O)[C@@H](O)[C@H](OCc2ccc(Br)cc2)[C@H]1NC(=O)c1cccc(N)c1 (single isomer, unassigned) [Compound 38] | ++ (61% to 80% inhibition at 250 micromolar) | +++ (81% to 100% inhibition at 250 micromolar) | +++ (81% to 100% inhibition at 250 micromolar)
11 | Nc1cccc(C(=O)NC2C(OCc3ccccc3)OC(CO)C(O)C2OCc2ccc(C(=O)O)cc2)c1 (single isomer, unassigned) [Compound 101] | − (0% to 35% inhibition at 250 micromolar) | ++ (61% to 80% inhibition at 250 micromolar) | + (36% to 60% inhibition at 250 micromolar)
12 | CCC(=O)NC1C(OCc2ccccc2)OC(COCc2cccc(N)c2)C(O)C1OCc1ccc(C(=O)O)cc1 (single isomer, unassigned) [Compound 104] | − (0% to 35% inhibition at 250 micromolar) | +++ (81% to 100% inhibition at 250 micromolar) | − (0% to 35% inhibition at 250 micromolar)
13 | COC1OC(COCc2ccc(Br)cc2)C(O)C(OCC(=O)O)C1NC(=O)c1cccc(N)c1 (single isomer, unassigned) [Compound 7] | + (36% to 60% inhibition at 250 micromolar) | +++ (81% to 100% inhibition at 250 micromolar) | + (36% to 60% inhibition at 250 micromolar)
14 | CCOCC1OC(OCc2ccccc2)C(NC(=O)c2cccc(N)c2)C(OCc2ccc(C(=O)O)cc2)C1O (single isomer, unassigned) [Compound 100] | − (0% to 35% inhibition at 250 micromolar) | +++ (81% to 100% inhibition at 250 micromolar) | − (0% to 35% inhibition at 250 micromolar)
15 | N=C(N)NCCC(=O)N[C@H]1C(O)O[C@H](COCc2ccccc2)[C@@H](O)[C@@H]1OCc1ccc(C(=O)O)cc1 (single isomer, unassigned) [Compound 59] | + (36% to 60% inhibition at 250 micromolar) | +++ (81% to 100% inhibition at 250 micromolar) | +++ (81% to 100% inhibition at 250 micromolar)
16 | Nc1cccc(COC2C(O)C(COCc3ccccc3)OC(O)C2NC(=O)c2ccc(C(=O)O)cc2)c1 (single isomer, unassigned) [Compound 70] | + (36% to 60% inhibition at 250 micromolar) | +++ (81% to 100% inhibition at 250 micromolar) | +++ (81% to 100% inhibition at 250 micromolar)
17 | COC1OC(COCC(=O)O)C(O)C(OCc2ccccc2)C1NC(=O)CCCN (single isomer, unassigned) [Compound 123] | + (36% to 60% inhibition at 250 micromolar) | +++ (81% to 100% inhibition at 250 micromolar) | − (0% to 35% inhibition at 250 micromolar)
18 | CCOC1OC(COCC(=O)O)C(O)C(OCc2ccccc2)C1NC(=O)CN (single isomer, unassigned) [Compound 117] | + (36% to 60% inhibition at 250 micromolar) | +++ (81% to 100% inhibition at 250 micromolar) | − (0% to 35% inhibition at 250 micromolar)
19 | CCOC1O[C@H](COCc2ccc(Br)cc2)[C@@H](O)[C@H](OCC(=O)O)[C@H]1NC(=O)CCNC(=N)N (single isomer, unassigned) [Compound 51] | ++ (61% to 80% inhibition at 250 micromolar) | +++ (81% to 100% inhibition at 250 micromolar) | ++ (61% to 80% inhibition at 250 micromolar)
20 | COC1OC(COCC(=O)O)C(O)C(OCc2ccccc2)C1NC(=O)C1CCNCC1 (single isomer, unassigned) [Compound 136] | +++ (81% to 100% inhibition at 250 micromolar) | – | − (0% to 35% inhibition at 250 micromolar)
21 | COC1OC(COCc2ccc(C(=O)O)cc2)C(O)C(OCc2cccc(N)c2)C1NC(=O)c1ccc(Cl)cc1 (single isomer, unassigned) [Compound 30] | ++ (61% to 80% inhibition at 250 micromolar) | +++ (81% to 100% inhibition at 250 micromolar) | +++ (81% to 100% inhibition at 250 micromolar)
22 | COC1OC(COCc2ccc(Br)cc2)C(O)C(OCc2ccc(C(=O)O)cc2)C1NC(=O)CCNC(=N)N (single isomer, unassigned) [Compound 15] | + (36% to 60% inhibition at 250 micromolar) | +++ (81% to 100% inhibition at 250 micromolar) | ++ (61% to 80% inhibition at 250 micromolar)
23 | Nc1cccc(COC[C@H]2OC[C@H](NC(=O)c3ccccc3)[C@@H](OCC(=O)O)[C@@H]2O)c1 [Compound 56] | − (0% to 35% inhibition at 250 micromolar) | +++ (81% to 100% inhibition at 250 micromolar) | ++ (61% to 80% inhibition at 250 micromolar)

— US20080176936A1, “Classes of Compounds that Interact with Integrins” (priority 2005, published 2008)
